Data on five molecules can be found in patent US9801898B2, “Glutamate dehydrogenase 1 inhibitors and methods of treating cancer” (Emory University, priority 2015, dated 2017).

Series [1] addresses T1, GDH1 (Homo sapiens, UniProt P00367). In words: Tryptophan fluorescence binding assay. The settings on record: purified GDH1, tryptophan fluorescence binding. How it is done:
Purified GDH1 was incubated with increasing concentrations of purpurin.

The next series can be described thus: Cell permeability. Type of series: in vitro ADME.
Series [2] addresses T1, GDH1. Kind of series: GDH1 enzyme activity assay with purified GDH1. In kind it is biochemical. The following applies: for potency and specificity for GDH1 inhibition in comparison of purpurin, R162 and EGCG: in vitro and in cancer cells; for inhibitory effect on GDH1 enzyme activity in vitro: purified GDH1. How it is done: (§1) GDH1 enzyme activity assay was performed. Total cell lysates (20 microg) or 100 ng of purified GDH1 was added to a reaction mixture containing 50 mM triethanolamine (pH 8.0), 100 mM ammoniumacetate, 100 microM NADPH, and 2.6 mM EDTA. […] GPx, SOD, TRX, GSR, and CAT enzyme activities were determined by using commercially available kits from Biovision according to the manufacturer's instructions. PRX enzyme activity was assayed by coupling its activity to oxidation of NADPH via TRXs.

For series [3], the system named is GDH1 knockdown cells (H1299, MDA-MB231). In words: Rescue experiments in GDH1 knockdown cancer cells. Type of series: cell-based, human. On the procedure: (§2) Adherent cells or leukemia cells were seeded in six-well plate, and cell numbers were determined by trypan blue exclusion using TC10 automated cell counter (Bio-Rad).
Series [4] has as its system H1299 and MDA-MB231 cells. Kind of series: Fumarate, GPx activity and ROS levels in R162-treated cells. In kind it is cell-based, human. How it is done: as §1
The subject of series [5] is H1299 GDH1 knockdown xenograft. Kind of series: NAC rescue in H1299 GDH1 knockdown xenograft mice. Type of series: in vivo. The following applies: NAC 10 mg/ml drinking water.
Method: Nude mice (athymic nu/nu, female, 4-6 weeks old; Harlan) were subcutaneously injected with H1299 cells harboring empty vector on the left flank, and cells with stable knockdown of GDH1 on the right flank, respectively. For the NAC rescue experiment, mice of the NAC rescue group were treated with NAC drinking water at 10 mg/ml from 3 days after H1299-GDH1 shRNA cells injection for 42 days. […] Tumor growth was recorded by measurement of two perpendicular diameters of the tumors, and tumor size was calculated. The tumors were harvested and weighed at the experimental endpoint.
Nude mice were subcutaneously injected with control H1299 cells harboring empty vector or GDH1 knockdown cells. NAC at a concentration of 10 mg/ml was administered via drinking water to half of the mice injected with GDH1 knockdown cells.
Series [6] has as its target T1, GDH1. The settings on record: cited from earlier work.
Series [7] deals with T2, 6-phosphogluconate dehydrogenase (6PGD) (Homo sapiens, UniProt P52209).
T2 sequence (P52209 1-483): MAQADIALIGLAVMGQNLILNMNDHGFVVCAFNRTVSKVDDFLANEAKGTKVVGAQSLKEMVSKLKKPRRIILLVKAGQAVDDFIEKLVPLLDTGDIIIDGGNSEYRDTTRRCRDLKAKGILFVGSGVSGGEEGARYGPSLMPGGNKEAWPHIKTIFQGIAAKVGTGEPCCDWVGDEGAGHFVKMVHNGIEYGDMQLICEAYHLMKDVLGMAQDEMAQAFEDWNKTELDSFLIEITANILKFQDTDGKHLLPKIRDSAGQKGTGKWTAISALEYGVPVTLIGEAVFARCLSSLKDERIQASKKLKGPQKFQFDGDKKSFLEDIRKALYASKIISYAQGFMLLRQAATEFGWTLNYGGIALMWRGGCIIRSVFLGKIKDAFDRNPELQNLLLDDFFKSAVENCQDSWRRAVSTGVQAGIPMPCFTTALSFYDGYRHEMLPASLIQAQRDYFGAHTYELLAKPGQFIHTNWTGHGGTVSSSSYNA
Kind of series: 6PGD enzyme activity in vitro. Type of series: biochemical.

The target in a further series is T3, fumarate hydratase (FH) (Homo sapiens, UniProt P07954).
T3 sequence (P07954 45-510): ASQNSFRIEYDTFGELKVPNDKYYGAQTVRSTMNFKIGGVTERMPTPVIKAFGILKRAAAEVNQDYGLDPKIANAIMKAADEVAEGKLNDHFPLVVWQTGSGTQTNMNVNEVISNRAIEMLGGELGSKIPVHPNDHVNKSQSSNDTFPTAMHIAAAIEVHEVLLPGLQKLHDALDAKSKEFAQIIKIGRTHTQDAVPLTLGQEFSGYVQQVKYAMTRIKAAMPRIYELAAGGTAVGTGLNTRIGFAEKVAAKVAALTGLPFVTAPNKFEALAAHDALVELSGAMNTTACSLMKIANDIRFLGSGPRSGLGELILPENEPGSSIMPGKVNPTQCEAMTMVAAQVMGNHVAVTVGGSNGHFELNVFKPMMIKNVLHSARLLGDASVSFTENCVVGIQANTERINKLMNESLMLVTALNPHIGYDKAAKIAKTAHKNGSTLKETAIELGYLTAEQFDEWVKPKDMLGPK
Kind of series: FH enzyme activity in vitro. Type of series: biochemical.

For series [8], the target named is T4, GPx1 (Homo sapiens, UniProt P07203).
T4 construct: made in house; host or cells: 293T cells (transfected)
T4 sequence (P07203 1-203): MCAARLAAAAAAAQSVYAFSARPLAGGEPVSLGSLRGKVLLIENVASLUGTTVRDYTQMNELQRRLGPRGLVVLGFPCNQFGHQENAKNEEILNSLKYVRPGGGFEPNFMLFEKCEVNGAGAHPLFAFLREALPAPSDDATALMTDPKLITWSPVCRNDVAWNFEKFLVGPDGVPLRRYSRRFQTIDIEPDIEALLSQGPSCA
Kind of series: Activity of purified GPx1 in the presence of metabolites. Type of series: biochemical. The settings on record: physiological concentrations of metabolite; GPx1 from mammalian cells or human erythrocytes. On the procedure: as §1
GPx activity in GDH1 knockdown cells.

Series [9] has as its target T4, GPx1. In words: Radiometric 14C-fumarate/14C-alpha-KG-GPx1 binding assay. An excerpt: The beads were then washed with TBS buffer. The bead-bound GPx1 protein was eluted with 10 microg flag peptides, and radioactivity was detected by liquid scintillation counting.
For series [10], the system named is primary leukemia cells from myeloid leukemia patients. Kind of series: Cell viability of primary leukemia cells. Type of series: cell-based, human.
The next series concerns the target T5, mitochondrial GDH (Homo sapiens, UniProt P00367).
T5 construct: GDH activity in cancer cells treated with R162 (20 microM); endogenous in cells; host or cells: cancer cells (probably H1299 and MDA-MB231)
Kind of series: GDH activity in cancer cells treated with compound. Type of series: cell-based. The following applies: compared with purpurin; R162 20 microM. On the procedure:
as §1

In series [11] the test system is human lung cancer, breast cancer, and leukemia cell lines. Kind of series: Cell viability in cancer cell lines. In kind it is cell-based.
Series [12] concerns HaCaT, MRC-5 and HFF cells. Kind of series: Cell viability in control proliferating human cells. In kind it is cell-based. The following applies: MRC-5, HFF control proliferative human cells.
The nature of series [13]: In vivo toxicity study (hematology, histopathology). Also noted: species or system mice. On the procedure:
The in vivo efficacy of R162 in the treatment of xenograft tumor mouse models was tested. For initial in vivo toxicity studies, 30 mg/kg/day of R162 was administered to mice for 30 days by intraperitoneal injection.

Series [14] concerns H1299 and MDA-MB231 cells. Kind of series: Cell proliferation assay (cell counting). In kind it is cell-based, human. How it is done: as §2
For another series, the system named is H1299 xenograft. In words: H1299 xenograft nude mice, R162 treatment. In kind it is in vivo. How it is done:
Nude mice (athymic nu/nu, female, 4-6 weeks old; Harlan) were subcutaneously injected with H1299 cells harboring empty vector on the left flank, and cells with stable knockdown of GDH1 on the right flank, respectively. For the NAC rescue experiment, mice of the NAC rescue group were treated with NAC drinking water at 10 mg/ml from 3 days after H1299-GDH1 shRNA cells injection for 42 days. To evaluate the efficacy of R162, the drug was administered from a day after H1299 cells injection by daily intraperitoneal injection of 30 mg/kg for 35 days. Fifty percent of DMSO in PBS was as a diluent control. Tumor growth was recorded by measurement of two perpendicular diameters of the tumors, and tumor size was calculated. The tumors were harvested and weighed at the experimental endpoint. Tumor proliferation was determined by Ki-67 IHC staining.
An in vivo R162 treatment was performed using H1299-xenograft nude mice. A day after xenograft injection, mice were divided into two groups (n=8 per group) and treated with either R162 ([…]) or control DMSO for 35 days.

Series [15] addresses T1, GDH1. Kind of series: Thermal melt shift assay. In kind it is binding. The following applies: increasing concentrations of R162. How it is done:
To examine the interaction between GDH1 and R162, a thermal melt shift assay was performed.

For series [16], the system named is mononucleocytes in peripheral blood samples from healthy human donors. Kind of series: Cell viability of mononucleocytes from healthy donors. In kind it is cell-based.
The mark [17] stands for this setting: R162 20 mg/kg/day for 35 days vs control DMSO.

SMILES strings stand for the structures. Entries after “also recorded” stand apart in the source; their conditions may differ.

T1 sequence (P00367 54-558): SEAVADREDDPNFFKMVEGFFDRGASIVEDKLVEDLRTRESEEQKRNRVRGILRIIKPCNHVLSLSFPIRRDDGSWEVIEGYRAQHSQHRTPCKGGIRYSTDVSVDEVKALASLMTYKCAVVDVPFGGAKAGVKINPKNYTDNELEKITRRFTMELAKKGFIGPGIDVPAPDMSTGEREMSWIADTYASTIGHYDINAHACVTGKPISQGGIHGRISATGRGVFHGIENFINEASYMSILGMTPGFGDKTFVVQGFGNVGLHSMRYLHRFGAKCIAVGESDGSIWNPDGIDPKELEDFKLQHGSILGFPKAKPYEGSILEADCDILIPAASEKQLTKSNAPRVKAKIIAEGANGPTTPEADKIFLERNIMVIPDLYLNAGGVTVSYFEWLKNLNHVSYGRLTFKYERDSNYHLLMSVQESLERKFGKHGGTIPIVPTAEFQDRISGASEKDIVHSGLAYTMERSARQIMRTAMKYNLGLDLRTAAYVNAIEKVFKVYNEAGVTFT
T5 sequence (P00367 54-558): as above

The molecule `O=C1c2ccccc2C(=O)c2c(O)c(O)cc(O)c21` [purpurin, reference compound] showed a Kd at GDH1 [1] of 11.5 ± 1.17 µM. In addition, the cell permeability entry in the series “Cell permeability” was “not cell permeable”. At GDH1 [2], the “potency and specificity for GDH1 inhibition in comparison of purpurin, R162 and EGCG” value is “more potent and specific”; the “inhibitory effect on GDH1 enzyme activity in vitro” value was “dramatic inhibitory effects”. In addition, on GDH1 [2] (recombinant, purified active GDH1, in vitro GDH activity assay), the Ki was determined as 1.9 ± 0.26 µM.

For `CC(=O)N[C@@H](CS)C(=O)O` [NAC, N-acetylcysteine], in [3], the “rescue of increased ROS” value is reported as “significantly rescued” and the “rescue of reduced cell proliferation” value is “significantly rescued”. The “rescue of R162 effects (fumarate, GPx activity, ROS, cell proliferation)” value in series [4] (R162-treated H1299 and MDA-MB231 cells) is on record as “significantly rescued”. The “rescue of attenuated tumor growth” value in [5] is recorded as “partially rescued”.

Consider `O=C(O[C@@H]1Cc2c(O)cc(O)cc2O[C@@H]1c1cc(O)c(O)c(O)c1)c1cc(O)c(O)c(O)c1` [EGCG, epigallocatechin gallate], for which the “GDH1 inhibition as reported” value on GDH1 [6] is listed as “reported to inhibit GDH1 activity”. Besides, the “effect on activity of 6PGD” value in series [7] is “significantly affected activity”. The “effect on activity of FH” value on fumarate hydratase (FH) is listed as “significantly affected activity”.

Take `O=C(O)/C=C/C(=O)O` [fumarate]: at GPx1 [8], the “activity of purified human GPx1” value is given as “significantly increased”. In addition, on GPx1 [9], the “retention of 14C-labeled metabolite on GPx1” value was “retained on GPx1”. At GPx1 [9] (read-out: Kd value of the GPx1-fumarate interaction), the Kd was determined as 75.5 ± 5.22 µM.

In the case of `C=CCc1ccc2c(c1O)C(=O)c1ccccc1C2=O` [R162, 2-allyl-1-hydroxyanthracene-9,10-dione], in series [10], the cell viability entry was “decreased cell viability”. For the same molecule, on mitochondrial GDH, the “inhibitory effect on mitochondrial GDH activity in cancer cells” value was “more potent inhibitory effects”. Moreover, the cell viability result in series [11] is on record as “attenuated cell viability”. Moreover, in [12], the cell viability entry is recorded as “but not in human proliferating cells”. For the same molecule, the cell permeability result in the series “Cell permeability” was “more cell-permeable than purpurin”. Moreover, the histopathological change result in series [13] (30 mg/kg/day for 30 days, intraperitoneal, vs vehicle) is “did not result in a significant histopathological change”. In [13] (mice, 30 mg/kg/day), the Basophils is on record as 0.105 ± 0.06 ×10^3/μl, the Eosinophils was 0.21 ± 0.07 ×10^3/μl, the HCT worked out at 45.95 ± 3.74% and the HGB amounted to 11.1 ± 1.55 g/dL. In addition, in [13] (mice, 30 mg/kg/day), the LYM is given as 3.145 ± 0.10 ×10^3/μl, the MCH is on record as 13.35 ± 0.91 pg, the MCHC amounted to 24.1 ± 1.41 g/dL and the MCV worked out at 55.35 ± 0.49 fL. Further, in series [13] (mice, 30 mg/kg/day), the MONO is listed as 0.165 ± 0.007 ×10^3/μl, the MPV worked out at 6.05 ± 0.21 fL, the NEU is 1.71 ± 0.18 ×10^3/μl and the RBC is reported as 8.3 ± 0.60 ×10^6/μl. Besides, in [13] (mice, 30 mg/kg/day), the RDW was found to be 18.5 ± 0.56% and the WBC is reported as 5.33 ± 0.41 ×10^3/μl. Besides, the cell proliferation entry in series [14] is recorded as “reduced cell proliferation”. In the series with H1299 xenograft (setting [17]), the tumor growth entry is recorded as “significantly decreased” and the tumor masses entry is “significantly decreased”. Also, the “GDH1 activity in resected tumors” value in the series with H1299 xenograft (xenograft nude mice) is listed as “effectively inhibited GDH1 activity”. Further, the “melting temperature (Tm) of GDH1” value on GDH1 [15] is listed as “raised the melting temperature (Tm) in a dose-dependent manner”. Also, in series [4] (H1299 and MDA-MB231 cells), the GPx activity entry is “attenuated GPx activity” and the intracellular fumarate levels entry was “decreased intracellular fumarate levels”. The ROS levels result in series [4] (cancer cells (H1299, MDA-MB231) treated with R162) is given as “elevated ROS levels; also recorded: increased ROS levels”. The cell viability result in series [16] is “did not affect cell viability”. The “mode of inhibition (Lineweaver-Burk plot)” value at GDH1 [2] (different concentrations of GDH1 substrate alpha-KG) is given as “mixed model inhibitor”. At GDH1 [2], the “potency and specificity for GDH1 inhibition in comparison of purpurin, R162 and EGCG” value is “more potent and specific”; the “inhibitory effect on GDH1 enzyme activity in vitro” value was “potent GDH1 inhibitor”.
